System: CHO^R cells
Assay: Reversal of multidrug resistance: cell growth in vinblastine resistant tumor cell line, cell number by Coulter counter
Format: cell-based
Conditions: 72 hr
Description: CHO^R cells were plated at a density of 1X10⁵/35mm dish and were allowed to grow overnight at 37°C in a CO₂ incubator. The medium was replaced with medium containing the compounds and vinblastine (0.2 µg/ml). The cells were allowed to grow for further 72 hr and the cell number was determined by Coulter counter after trypsinization. […]

SMILES | % Inhibition of Cell Growth Compound + VLB (compound 0.1 µg/ml plus vinblastine 0.2 µg/ml) [%] | inhibition at 0.1 µg/mL (compound 0.1 µg/ml, without VLB, read-out: % Inhibition of Cell Growth Compound Only) [%] | % Inhibition of Cell Growth Compound + VLB (compound 1 µg/ml plus vinblastine 0.2 µg/ml) [%] | inhibition at 1 µg/mL (compound 1 µg/ml, without VLB, read-out: % Inhibition of Cell Growth Compound Only) [%] | % Inhibition of Cell Growth Compound + VLB (compound 10 µg/ml plus vinblastine 0.2 µg/ml) [%] | inhibition at 10 µg/mL (compound 10 µg/ml, without VLB, read-out: % Inhibition of Cell Growth Compound Only) [%] | effect on cell growth (VLB alone at 0.2 µg/ml)
CCCc1[nH]c(=O)oc1-c1ccncc1 [4-PROPYL-5(4-PYRIDINYL)-2(3H)-OXAZOLONE, 4-propyl-5-(4-pyridinyl)-2(3H)-oxazolone] | 6 | 0 | 22 | 0 | 82 | 55 | 
CC[C@]1(O)C[C@@H]2CN(CCc3c([nH]c4ccccc34)[C@@](C(=O)OC)(c3cc4c(cc3OC)N(C)[C@H]3[C@@](O)(C(=O)OC)[C@H](OC(C)=O)[C@]5(CC)C=CCN6CC[C@]43[C@@H]65)C2)C1 [VLB, vinblastine, reference compound] |  |  |  |  |  |  | did not have any effect on cell growth

From patent publication EP0428104A2, “Treatment of multi-drug resistant tumors with pyridyloxazole-2-ones” (MERRELL DOW PHARMACEUTICALS INC., priority 1989, dated 1991)
